Laboratory results as given in PubChem BioAssay (NCI).
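Step 1: Grow cells in 96-well plates. Step 2: Expose to compound for 48 hours at 5 concentrations. Step 3: Interpolate endpoints linearly; if unreached, use highest concentration. GI50: concentration for 50% inhibition of growth. At the TGI there is no net growth.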 *1 amine or outer side, *2 acyl side, *3 side chain or, on linkers, in order; H or OH if unused. Where a SMILES comes first, the peptide text is derived from it. Bridges are numbered along the chain shown (N, C = ends). [ ]: non-standard residue; d: D form. The star is where a group is joined. Phe(3-F) = N[C@@H](Cc1cccc(F)c1)C(=O)O; Pro(4R-Me) = C[C@H]1CN[C@H](C(=O)O)C1; aThr = C[C@H](O)[C@H](N)C(=O)O; Pip = O=C(O)[C@@H]1CCCCN1; X8 = CCc1ccc(N*)c(F)c1; CO = O=C([*:1])[*:2]

Columns and labels:
Test in all cases: NCI tumour cell line growth inhibition, 48 h
PC-3 prostate = test system: PC-3 prostate
CCRF-CEM leukemia = test system: CCRF-CEM leukemia
HCT-15 colon = test system: HCT-15 colon
OVCAR-4 ovarian = test system: OVCAR-4 ovarian
COLO 205 colon = test system: COLO 205 colon
TK-10 renal = test system: TK-10 renal
T-47D breast = test system: T-47D breast
SW-620 colon = test system: SW-620 colon
SK-MEL-5 melanoma = test system: SK-MEL-5 melanoma
U251 CNS = test system: U251 CNS
BT-549 breast = test system: BT-549 breast
SNB-19 CNS = test system: SNB-19 CNS
SK-MEL-2 melanoma = test system: SK-MEL-2 melanoma
HL-60(TB) leukemia = test system: HL-60(TB) leukemia
SF-539 CNS = test system: SF-539 CNS
NCI-H226 lung = test system: NCI-H226 lung
OVCAR-3 ovarian = test system: OVCAR-3 ovarian
LOX IMVI melanoma = test system: LOX IMVI melanoma
MDA-MB-231 breast = test system: MDA-MB-231 breast
MALME-3M melanoma = test system: MALME-3M melanoma
CAKI-1 renal = test system: CAKI-1 renal
786-0 renal = test system: 786-0 renal
NCI-H460 lung = test system: NCI-H460 lung
MDA-MB-435 = test system: MDA-MB-435
UACC-62 melanoma = test system: UACC-62 melanoma
SF-268 CNS = test system: SF-268 CNS
SK-MEL-28 melanoma = test system: SK-MEL-28 melanoma
RXF 393 renal = test system: RXF 393 renal
MOLT-4 leukemia = test system: MOLT-4 leukemia

Question: Which results are given for `CCc1ccc(NC(=O)N[C@@H](Cc2cccc(F)c2)C(=O)N[C@@H]2C(=O)N3CCC[C@H]3C(=O)N3CCCC[C@H]3C(=O)N[C@@H](C)C(=O)N3C[C@H](C)C[C@H]3C(=O)O[C@H]2C)c(F)c1` ({X8-CO}-[Phe(3-F)][aThr]P[Pip]A[Pro(4R-Me)]; ester 2-C)?
Answer: GI50 (PC-3 prostate): 0.191 µM; TGI (PC-3 prostate): > 100 µM; GI50 (CCRF-CEM leukemia): 0.252 µM; TGI (CCRF-CEM leukemia): 29.9 µM; GI50 (HCT-15 colon): 0.347 µM; TGI (HCT-15 colon): 7.22 µM; GI50 (OVCAR-4 ovarian): 0.163 µM; TGI (OVCAR-4 ovarian): > 19.9 µM; GI50 (COLO 205 colon): 0.18 µM; TGI (COLO 205 colon): 0.511 µM; GI50 (TK-10 renal): 0.608 µM; TGI (TK-10 renal): 29.1 µM; GI50 (T-47D breast): 0.337 µM; TGI (T-47D breast): 18.9 µM; GI50 (SW-620 colon): 0.486 µM; TGI (SW-620 colon): > 60.7 µM; GI50 (SK-MEL-5 melanoma): 0.354 µM; TGI (SK-MEL-5 melanoma): 1.57 µM; GI50 (U251 CNS): 0.318 µM; TGI (U251 CNS): 31.8 µM; GI50 (BT-549 breast): 0.199 µM; TGI (BT-549 breast): 2.8 µM; GI50 (SNB-19 CNS): 0.218 µM; TGI (SNB-19 CNS): > 82.9 µM; GI50 (SK-MEL-2 melanoma): 0.243 µM; TGI (SK-MEL-2 melanoma): 2.02 µM; GI50 (HL-60(TB) leukemia): 0.135 µM; TGI (HL-60(TB) leukemia): 1.7 µM; GI50 (SF-539 CNS): 0.541 µM; TGI (SF-539 CNS): 12.6 µM; GI50 (NCI-H226 lung): 0.351 µM; TGI (NCI-H226 lung): 5.23 µM; GI50 (OVCAR-3 ovarian): 0.337 µM; TGI (OVCAR-3 ovarian): 6.87 µM; GI50 (LOX IMVI melanoma): 0.369 µM; TGI (LOX IMVI melanoma): 16.2 µM; GI50 (MDA-MB-231 breast): 0.283 µM; TGI (MDA-MB-231 breast): 2.27 µM; GI50 (MALME-3M melanoma): 0.464 µM; TGI (MALME-3M melanoma): 11.4 µM; GI50 (CAKI-1 renal): 0.296 µM; TGI (CAKI-1 renal): 13.5 µM; GI50 (786-0 renal): 0.421 µM; TGI (786-0 renal): 75.2 µM; GI50 (NCI-H460 lung): 0.262 µM; TGI (NCI-H460 lung): 12.9 µM; GI50 (MDA-MB-435): 0.183 µM; TGI (MDA-MB-435): 6.01 µM; GI50 (UACC-62 melanoma): 0.369 µM; TGI (UACC-62 melanoma): 10.1 µM; GI50 (SF-268 CNS): 0.463 µM; TGI (SF-268 CNS): 53.4 µM; GI50 (SK-MEL-28 melanoma): 0.589 µM; TGI (SK-MEL-28 melanoma): 13.1 µM; GI50 (RXF 393 renal): 0.948 µM; TGI (RXF 393 renal): 7.96 µM; GI50 (MOLT-4 leukemia): 0.594 µM; TGI (MOLT-4 leukemia): 18.1 µM
